Data reported in patent publication US20050222270A1, “Prolonged administration of NMDA antagonist drug and safener drug to create improved stable neural homeostasis” (priority 2004, published 2005).

Columns and labels:
[1] = system: patient with intractable post-herpetic trigeminal neuralgia; assay: Ketamine infusion with clonidine and MgSO4 in a patient with post-herpetic trigeminal neuralgia; type: in vivo, human
From the text: A person had suffered for about 1.5 years from intractable post-herpetic trigeminal neuralgia (commonly known as shingles).

[2] = system: patients with CRPS-1 (RSD); assay: Sustained ketamine infusion (with clonidine/magnesium) in patients with CRPS-1 (RSD) chronic neuropathic pain
From the text: One of the coinventors herein (Correll, a physician) was involved in those tests, in Australia, using ketamine “mono-therapy” (i.e., without also administering a safener drug, such as clonidine).
In response, the anesthesiologist began to administer clonidine, a standard and conventional treatment for controlling high blood pressure. […] The anesthesiologist then began researching the scientific, medical, and patent literature on the subject, and soon discovered prior work done by the third inventor (Olney, a neurology researcher who specializes in animal models) on the subject of safener drugs that can reduce or prevent the toxic side effects of NMDA blocker drugs such as ketamine.
A person had suffered for roughly 9 years from intractable chronic pain, diagnosed as CRPS-1 and/or RSD, in their right leg and foot. This pain apparently was related to circulatory problems in their right leg. […] The contents of that article are incorporated herein by reference.
They were treated with […] of MgSO4 (infused in 5% dextrose in water, or D5W) and 0.1 mg clonidine (oral tablet) prior to ketamine. […] A second magnesium infusion was performed at 24 hr.

depressed patients = conditions: single one-time dosage; cited from earlier work
[3] = system: patients with compulsive eating disorders (mainly anorexic); conditions: 2 to 9 infusions, 10-hour infusion period, 20 mg per hour; cited from earlier work

Structure (SMILES): O=S(=O)([O-])[O-].[Mg+2] [MgSO4, magnesium sulfate]
- effect of magnesium coadministered along with ketamine on pain ([1]; Example 3, 2 g MgSO4 prior to and 2 g later in ketamine infusion): synergistic pain-reducing effect

Structure (SMILES): Clc1cccc(Cl)c1N=C1NCCN1 [clonidine]
- effect of adding clonidine to ketamine infusion on pain ([2]; patient in ketamine mono-therapy test, clonidine given for rising blood pressure): substantial improvement in their pain reduction

Structure (SMILES): CNC1(c2ccccc2Cl)CCCCC1=O (stereo not drawn) [ketamine]
- pain status at last contact ([1]; Example 3, about 12 months after treatment, 48 hours ketamine infusion, clonidine started during first day, 2 x 2 g MgSO4): still largely abated
- time patient remained pain-free after ketamine treatment ([2]; Example 1, person, 9-year CRPS-1/RSD in right leg and foot): roughly 18 months
- pain status at last contact ([2]; Example 2, about 12 months after treatment): still pain-free
- time until CNS side effects (slurring of speech) resolved ([2]; Example 2, ketamine infusion increased to 20 mg/hr): ≤ 24 h
- time of ketamine infusion until essentially complete relief from pain ([2]; Example 2, person, ketamine 10-20 mg/hr i.v. with clonidine 0.1 mg every 12 hours and MgSO4): 2 to 3 days
- effect on depression (depressed patients): transient relief of depression
- patients with prolonged remission of compulsive thoughts about food, diet, and weight [3]: Nine of the 15
